Measurements: US11702404B2, “GLP-1R modulating compounds” (priority 2019, dated 2023)
Where two headings read alike, the source gives them in different places.

Experiments:
[1] = Microsomal stability, human liver microsomes (predicted hepatic clearance); conditions: predicted from in vitro microsomal stability data
GLP-1R = GLP-1R (Homo sapiens, UniProt P43220); assay: GLP-1R activation: cAMP increase in CHO cells stably expressing GLP-1R; format: cell-based
[2] = cAMP increase, CHO cells stably expressing GLP-1R, 10 point dose response, 30 minutes incubation, read-out: EC50

Sequence of GLP-1R (P43220 24-463): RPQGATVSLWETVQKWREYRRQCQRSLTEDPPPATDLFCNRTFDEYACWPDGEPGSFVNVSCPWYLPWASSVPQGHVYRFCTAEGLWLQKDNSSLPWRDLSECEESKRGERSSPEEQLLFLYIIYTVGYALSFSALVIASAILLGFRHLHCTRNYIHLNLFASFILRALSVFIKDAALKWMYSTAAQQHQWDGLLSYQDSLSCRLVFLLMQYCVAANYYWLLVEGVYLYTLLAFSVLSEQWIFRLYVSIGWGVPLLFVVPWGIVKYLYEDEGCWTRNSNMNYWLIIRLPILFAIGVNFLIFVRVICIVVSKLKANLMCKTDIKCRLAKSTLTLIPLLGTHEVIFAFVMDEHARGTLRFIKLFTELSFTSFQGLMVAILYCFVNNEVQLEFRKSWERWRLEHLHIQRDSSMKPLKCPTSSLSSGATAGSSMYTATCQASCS

NC(=O)c1cc(F)c(COc2cccc(-c3cc(F)c(Cc4nc5ccc(C(=O)O)cc5n4C[C@@H]4CCO4)cc3F)n2)cn1 [Example 854, (S)-2-(4-(6-((6-carbamoyl-4-fluoropyridin-3-yl)methoxy)pyridin-2-yl)-2,5-difluorobenzyl)-1-(oxetan-2-ylmethyl)-1H-benzo[d]imidazole-6-carboxylic acid]
Predicted Hepatic Clearance (Pred. Cl.) [1]: 2.33 mL/min/kg
EC50 (GLP-1R; [2]): 0.55 nM

COCCn1c(Cc2cnc(-c3cccc(OCc4ccc(C#N)cc4F)n3)c(F)c2)nc2ccc(C(=O)O)cc21 [Example 855]
Predicted Hepatic Clearance (Pred. Cl.) [1]: 5.5 mL/min/kg
EC50 (GLP-1R; [2]): 12.6 nM

NC(=O)c1ccc(COc2cccc(-c3cc(F)c(Cc4nc5ccc(C(=O)O)cc5n4C[C@@H]4CCO4)cc3F)n2)c(OC(F)F)n1 [Example 857, (S)-2-(4-(6-((6-carbamoyl-2-(difluoromethoxy)pyridin-3-yl)methoxy)pyridin-2-yl)-2,5-difluorobenzyl)-1-(oxetan-2-ylmethyl)-1H-benzo[d]imidazole-6-carboxylic acid]
Predicted Hepatic Clearance (Pred. Cl.) [1]: 3.17 mL/min/kg
EC50 (GLP-1R; [2]): 0.35 nM

N#Cc1ccc(COc2cccc(-c3cc(F)c(Cc4nc5ccc(C(=O)O)cc5n4C[C@@H]4CCO4)cc3F)n2)c(OC(F)F)n1 [Example 858, (S)-2-(4-(6-((6-cyano-2-(difluoromethoxy)pyridin-3-yl)methoxy)pyridin-2-yl)-2,5-difluorobenzyl)-1-(oxetan-2-ylmethyl)-1H-benzo[d]imidazole-6-carboxylic acid]
Predicted Hepatic Clearance (Pred. Cl.) [1]: 8.83 mL/min/kg
EC50 (GLP-1R; [2]): 2.27 nM

COCCn1c(Cc2cc(F)c(-c3cccc(OCc4ccc(C#N)c(F)c4F)n3)cc2F)nc2ccc(C(=O)O)cc21 [Example 859]
Predicted Hepatic Clearance (Pred. Cl.) [1]: 1.83 mL/min/kg
EC50 (GLP-1R; [2]): 11.6 nM

COCCn1c(Cc2cc(F)c(-c3cccc(OCc4ccc(C(F)F)nc4)n3)cc2F)nc2ccc(C(=O)O)cc21 [Example 860]
Predicted Hepatic Clearance (Pred. Cl.) [1]: 1.83 mL/min/kg
EC50 (GLP-1R; [2]): 22.6 nM

COCCn1c(Cc2cc(F)c(-c3cccc(OCc4ccc(C(F)(F)F)nc4)n3)cc2F)nc2ccc(C(=O)O)cc21 [Example 861]
Predicted Hepatic Clearance (Pred. Cl.) [1]: 1.83 mL/min/kg
EC50 (GLP-1R; [2]): 16.5 nM

COCCn1c(Cc2cc(F)c(-c3cccc(OCc4cnc(C(F)(F)F)s4)n3)cc2F)nc2ccc(C(=O)O)cc21 [Example 862]
Predicted Hepatic Clearance (Pred. Cl.) [1]: 4.33 mL/min/kg
EC50 (GLP-1R; [2]): 16.2 nM

COCCn1c(Cc2cc(F)c(-c3cccc(OCc4cc(F)c(C(F)F)cc4F)n3)cc2F)nc2ccc(C(=O)O)cc21 [Example 863]
Predicted Hepatic Clearance (Pred. Cl.) [1]: 4.83 mL/min/kg
EC50 (GLP-1R; [2]): 5.51 nM

COCCn1c(Cc2cc(F)c(-c3cccc(OCc4ccc(-n5cccn5)nc4)n3)cc2F)nc2ccc(C(=O)O)cc21 [Example 865]
Predicted Hepatic Clearance (Pred. Cl.) [1]: 4.33 mL/min/kg
EC50 (GLP-1R; [2]): 29.8 nM

COCCn1c(Cc2cc(F)c(-c3cccc(OCc4ccc(OC)nc4)n3)cc2F)nc2ccc(C(=O)O)cc21 [Example 866, 2-[[2,5-difluoro-4-[6-[(6-methoxy-3-pyridyl)methoxy]-2-pyridyl]phenyl]methyl]-3-(2-methoxyethyl)benzimidazole-5-carboxylic acid]
Predicted Hepatic Clearance (Pred. Cl.) [1]: 8.17 mL/min/kg
EC50 (GLP-1R; [2]): 16.1 nM

COCCn1c(Cc2cc(F)c(-c3cccc(OCc4cc(F)c(C(F)(F)F)cc4F)n3)cc2F)nc2ccc(C(=O)O)cc21 [Example 867]
Predicted Hepatic Clearance (Pred. Cl.) [1]: 1.83 mL/min/kg
EC50 (GLP-1R; [2]): 2.41 nM

COCCn1c(Cc2cc(F)c(-c3cccc(OCc4ccc(C(F)(F)F)cn4)n3)cc2F)nc2ccc(C(=O)O)cc21 [Example 868]
Predicted Hepatic Clearance (Pred. Cl.) [1]: 3.5 mL/min/kg
EC50 (GLP-1R; [2]): 5.48 nM

COCCn1c(Cc2cc(F)c(-c3cccc(OCc4ccc(Cl)cn4)n3)cc2F)nc2ccc(C(=O)O)cc21 [Example 869]
Predicted Hepatic Clearance (Pred. Cl.) [1]: 6.5 mL/min/kg
EC50 (GLP-1R; [2]): 6.28 nM

COCCn1c(Cc2cc(F)c(-c3cccc(OCc4ccc(C#N)cn4)n3)cc2F)nc2ccc(C(=O)O)cc21 [Example 870]
Predicted Hepatic Clearance (Pred. Cl.) [1]: 1.83 mL/min/kg
EC50 (GLP-1R; [2]): 17.6 nM

COCCn1c(Cc2cc(F)c(-c3cccc(OCc4cc(C)c(C(F)(F)F)cc4F)n3)cc2F)nc2ccc(C(=O)O)cc21 [Example 871]
Predicted Hepatic Clearance (Pred. Cl.) [1]: 2 mL/min/kg
EC50 (GLP-1R; [2]): 30.8 nM

COCCn1c(Cc2cc(F)c(-c3cccc(OCc4ccc(C(F)(F)F)c(F)c4F)n3)cc2F)nc2ccc(C(=O)O)cc21 [Example 872, 2-[[4-[6-[[2,3-difluoro-4-(trifluoromethyl)phenyl]methoxy]-2-pyridyl]-2,5-difluoro-phenyl]methyl]-3-(2-methoxyethyl)benzimidazole-5-carboxylic acid]
Predicted Hepatic Clearance (Pred. Cl.) [1]: 1.83 mL/min/kg
EC50 (GLP-1R; [2]): 5.09 nM

COCCn1c(Cc2cc(F)c(-c3cccc(OCc4cccc5c4COC5)n3)cc2F)nc2ccc(C(=O)O)cc21 [Example 873]
Predicted Hepatic Clearance (Pred. Cl.) [1]: 12.2 mL/min/kg
EC50 (GLP-1R; [2]): 83.8 nM

COCCn1c(Cc2cc(F)c(-c3cccc(OCc4ccc(Br)c5c4COC5)n3)cc2F)nc2ccc(C(=O)O)cc21 [Example 874]
Predicted Hepatic Clearance (Pred. Cl.) [1]: 1.83 mL/min/kg
EC50 (GLP-1R; [2]): 34.7 nM

COCCn1c(Cc2cc(F)c(-c3cccc(OCc4ccc(C(C)=O)cc4)n3)cc2F)nc2ccc(C(=O)O)cc21 [Example 875]
Predicted Hepatic Clearance (Pred. Cl.) [1]: 9.33 mL/min/kg
EC50 (GLP-1R; [2]): 2.32 nM

COCCn1c(Cc2cc(F)c(-c3cccc(OCc4cccc(Br)c4)n3)cc2F)nc2ccc(C(=O)O)cc21 [Example 876]
Predicted Hepatic Clearance (Pred. Cl.) [1]: 1.83 mL/min/kg
EC50 (GLP-1R; [2]): 27.6 nM

O=C(O)c1ccc2nc(Cc3cc(F)c(-c4nc(OCc5ccc(C(F)F)cc5F)ncc4F)cc3F)n(C[C@@H]3CCO3)c2c1 [Example 877]
Predicted Hepatic Clearance (Pred. Cl.) [1]: 7.17 mL/min/kg
EC50 (GLP-1R; [2]): 0.51 nM

N#Cc1cc(F)c(COc2ncc(F)c(-c3cc(F)c(Cc4nc5ccc(C(=O)O)cc5n4C[C@@H]4CCO4)cc3F)n2)cc1F [Example 878]
Predicted Hepatic Clearance (Pred. Cl.) [1]: 8.83 mL/min/kg
EC50 (GLP-1R; [2]): 0.78 nM

N#Cc1ccc(COc2ncc(F)c(-c3cc(F)c(Cc4nc5ccc(C(=O)O)cc5n4C[C@@H]4CCO4)cc3F)n2)c(F)c1 [Example 879, 2-[[4-[2-[(4-cyano-2-fluoro-phenyl)methoxy]-5-fluoro-pyrimidin-4-yl]-2,5-difluoro-phenyl]methyl]-3-[[(2S)-oxetan-2-yl]methyl]benzimidazole-5-carboxylic acid]
Predicted Hepatic Clearance (Pred. Cl.) [1]: 6 mL/min/kg
EC50 (GLP-1R; [2]): 0.51 nM

N#Cc1ccc(COc2ncc(F)c(-c3ccc(Cc4nc5c(F)cc(C(=O)O)cc5n4C[C@@H]4CCO4)c(F)c3)n2)c(F)c1 [Example 880]
Predicted Hepatic Clearance (Pred. Cl.) [1]: 7.5 mL/min/kg
EC50 (GLP-1R; [2]): 0.26 nM

N#Cc1ccc(COc2ncc(F)c(-c3ccc(Cc4nc5c(F)cc(C(=O)O)cc5n4C[C@@H]4CCO4)cc3F)n2)c(F)c1 [Example 881]
Predicted Hepatic Clearance (Pred. Cl.) [1]: 8.83 mL/min/kg
EC50 (GLP-1R; [2]): 0.29 nM

N#Cc1ccc(COc2ncc(F)c(-c3ccc(Cc4nc5c(F)cc(C(=O)O)cc5n4C[C@@H]4CCO4)cc3)n2)c(F)c1 [Example 882]
Predicted Hepatic Clearance (Pred. Cl.) [1]: 6.17 mL/min/kg
EC50 (GLP-1R; [2]): 0.18 nM

N#Cc1ccc(COc2ncc(F)c(-c3cc(F)c(Cc4nc5c(F)cc(C(=O)O)cc5n4CC4(CF)CC4)cc3F)n2)c(F)c1 [Example 883]
Predicted Hepatic Clearance (Pred. Cl.) [1]: 7.5 mL/min/kg
EC50 (GLP-1R; [2]): 0.3 nM

O=C(O)c1cc(F)c2nc(Cc3cc(F)c(-c4nc(OCc5ccc(C(F)(F)F)cc5F)ncc4F)cc3F)n(C[C@@H]3CCO3)c2c1 [Example 884]
Predicted Hepatic Clearance (Pred. Cl.) [1]: 3.17 mL/min/kg
EC50 (GLP-1R; [2]): 0.19 nM

N#Cc1cc(F)c(COc2ncc(F)c(-c3cc(F)c(Cc4nc5c(F)cc(C(=O)O)cc5n4C[C@@H]4CCO4)cc3F)n2)cc1F [Example 885]
Predicted Hepatic Clearance (Pred. Cl.) [1]: 9.17 mL/min/kg
EC50 (GLP-1R; [2]): 0.22 nM

N#Cc1ccc(COc2ncc(F)c(-c3cc(F)c(Cc4nc5c(F)cc(C(=O)O)cc5n4C[C@@H]4CCO4)cc3F)n2)c(F)c1 [Example 886]
Predicted Hepatic Clearance (Pred. Cl.) [1]: 5.83 mL/min/kg
EC50 (GLP-1R; [2]): 0.18 nM

CC(C)(C)C(=O)N1CC[C@@H]1Cn1c(Cc2ccc(-c3cccc(OCc4ccc(C#N)cc4F)n3)cc2F)nc2ccc(C(=O)O)cc21 [Example 887, 2-[[4-[6-[(4-cyano-2-fluoro-phenyl)methoxy]-2-pyridyl]-2-fluoro-phenyl]methyl]-3-[[(2R)-1-(2,2-dimethylpropanoyl)azetidin-2-yl]methyl]benzimidazole-5-carboxylic acid]
Predicted Hepatic Clearance (Pred. Cl.) [1]: 8.83 mL/min/kg
EC50 (GLP-1R; read-out: EC50): 8310 nM

CS(=O)(=O)N1CC[C@@H]1Cn1c(Cc2ccc(-c3cccc(OCc4ccc(C#N)cc4F)n3)cc2F)nc2ccc(C(=O)O)cc21 [Example 888, 2-[[4-[6-[(4-cyano-2-fluoro-phenyl)methoxy]-2-pyridyl]-2-fluoro-phenyl]methyl]-3-[[(2R)-1-methylsulfonylazetidin-2-yl]methyl]benzimidazole-5-carboxylic acid]
Predicted Hepatic Clearance (Pred. Cl.) [1]: 5.83 mL/min/kg
EC50 (GLP-1R; read-out: EC50): 6.01 nM

N#Cc1ccc(COc2cccc(-c3cc(F)c(Cc4nc5c(F)cc(C(=O)O)cc5n4CCOC(F)F)cc3F)n2)c(F)c1 [Example 892]
Predicted Hepatic Clearance (Pred. Cl.) [1]: 5.5 mL/min/kg
EC50 (GLP-1R; [2]): 0.78 nM

CC(C)(C)OCCn1c(Cc2cc(F)c(-c3cccc(OCc4ccc(C#N)cc4F)n3)cc2F)nc2ccc(C(=O)O)cc21 [Example 893, 1-(2-(tert-butoxy)ethyl)-2-(4-(6-((4-cyano-2-fluorobenzyl)oxy)pyridin-2-yl)-2,5-difluorobenzyl)-1H-benzo[d]imidazole-6-carboxylic acid]
Predicted Hepatic Clearance (Pred. Cl.) [1]: 1.83 mL/min/kg
EC50 (GLP-1R; EC50 (nM)): 35.3 nM

N#Cc1ccc(COc2cccc(-c3cc(F)c(Cc4nc5c(F)cc(C(=O)O)cc5n4CCOC4CC4)cc3F)n2)c(F)c1 [Example 894]
Predicted Hepatic Clearance (Pred. Cl.) [1]: 4.17 mL/min/kg
EC50 (GLP-1R; [2]): 2.68 nM

N#Cc1ccc(COc2cccc(-c3cc(F)c(Cc4nc5ccc(C(=O)O)cc5n4CCNc4ccccc4)cc3F)n2)c(F)c1 [Example 895]
Predicted Hepatic Clearance (Pred. Cl.) [1]: 8 mL/min/kg
EC50 (GLP-1R; read-out: EC50): 79.9 nM

N#Cc1ccc(COc2cccc(-c3cc(F)c(Cc4nc5c(F)cc(C(=O)O)cc5n4C[C@@H]4CCO4)cc3F)n2)c(F)c1 [Example 896]
Predicted Hepatic Clearance (Pred. Cl.) [1]: 4.5 mL/min/kg
EC50 (GLP-1R; [2]): 0.03 nM
